Read-outs that look alike come from different tables or passages of the source.

For experiment [1], the system named is HCV genotype 1a (H77 strain) replicon in HUH-7 cells. Kind of experiment: HCV replicon luciferase reporter assay, genotype 1a. The class given is cell-based. Conditions: 3 days incubation. The source says:
(§1) Generation of HCV Replicon
(§2) An HCV replicon whole cell system was established as described by Lohmann V, Korner F, Koch J, Herian U, Theilmann L, Bartenschlager R., Science 285(5424):110-3 (1999) and modified to introduce a luciferase reporter, as first described by Krieger et al (Krieger N, Lohmann V, and Bartenschlager R, J. Virol. 75(10):4614-4624 (2001)). CDNA encoding a humanized form of the Renilla luciferase gene and a linker sequence fused directly to the 3′-end of the luciferase gene were introduced into the replicon construct using an Asc1 restriction site located in core, directly upstream of the neomycin marker gene. The adaptive mutation at position 1179 (serine to isoleucine) was also introduced (Blight K J, Kolykhalov, A A, Rice, C M, Science 290(5498):1972-1974). A stable cell line constitutively expressing this HCV replicon construct was generated by first linearizing plasmid DNAs with ScaI. RNA transcripts were synthesized in vitro using the T7 MegaScript transcription kit (Ambion, Austin, Tex.) according to manufacturer's directions. In vitro transcripts of the cDNA were transfected into the human hepatoma cell line, HUH-7. […] Resulting cell lines were characterized for positive and negative strand RNA production and protein production over time.
A stable HCV replicon luciferase reporter cell line representing the genotype 1a H77 strain (Yanagi M, Purcell R H, Emerson S U, et al. Transcripts from a single full-length cDNA clone of hepatitis C virus are infectious when directly transfected into the liver of a chimpanzee. Proc Natl Acad Sci USA 1997; 94(16):8738-8743) was generated as described previously for the genotype 1b(Con1) replicon luciferase cell line. The replicon construct was modified by introducing mutations were introduced into the genes encoding the NS3 helicase domain (proline replaced by leucine at position 1496) and NSSA (serine to isoleucine at position 2204) to improve replication in cell culture.
(§3) HCV Replicon Luciferase Reporter Assay
(§4) HCV replicon luciferase assays were developed to monitor the inhibitory effects of compounds described in the disclosure on HCV genotypes 1a and 1b viral replication. HUH-7 cells, constitutively expressing the HCV replicon, were grown in Dulbecco's Modified Eagle Media (DMEM) (Gibco-BRL) containing 10% Fetal calf serum (FCS) (Sigma) and 1 mg/mL G418 (Gibco-BRL). Compounds were serially diluted 3 folds in DMSO for a twenty-point titration and subsequently transferred to sterile 384-well tissue-culture treated plates (Corning cat #3571). The plates were then seeded with 50 μL of cells at a density of 3.0×10^3 cells/well in DMEM containing 4% FCS (final DMSO concentration at 0.5%). After 3 days incubation at 37° C., cells were analyzed for Renilla Luciferase activity using the EnduRen as substrate (Promega cat #E6485). The EnduRen substrate was diluted in DMEM and then added to the plates to a final concentration of 7.5 μM. The plates were incubated for 2 hrs at 37° C. and then read immediately for 30 seconds with Viewlux Imager (PerkinElmer) using a luminescence program. To assess cytotoxicity of compounds, CC50 values were generated by multiplexing the EnduRen-containing plates with Cell Titer-Blue (Promega, cat # G8082). Cell-Titer Blue (3 μL) was added to each well and incubated for 8 hrs at 37° C. The fluorescence signal from each well was read, with an excitation wavelength at 525/10 nm and an emission wavelength of 598/10 nm, using the Viewlux Imager.
(§5) The EC50 values for compounds were calculated by using a four-parameter logistic equation: y=A+((B−A)/(1+((C/x)^D))), where A and B denotes minimal and maximal % inhibition, respectively, C is the EC50, D is the hill slope and x represents compound concentration.
For orientation: Replicon systems follow genome replication, usually without infectious particles.

The subject of experiment [2] is HCV genotype 1b (Con1) replicon in HUH-7 cells. Description: HCV replicon luciferase reporter assay, genotype 1b. The class given is cell-based. The note with it: 3 days incubation.
Text: as §1
as §2, with “time. […]” for “time.”
as §3, §4, §5

The mark [3] stands for this setting: HCV genotype 1a replicon luciferase, read-out: LE_1a (EC50, range).
Where [4] appears, read: HCV genotype 1b replicon luciferase, read-out: LE_1b (EC50, range).
Where [5] appears, read: Hepatitis C virus, Huh-7, 72 h, HCV genotype 1a replicon luciferase assay, range class, read-out: LE_1a (EC50, range).
Setting [6] is: Hepatitis C virus, Huh-7, 72 h, HCV genotype 1b replicon luciferase assay, range class, read-out: LE_1b (EC50, range).

As usually defined, the EC50 is the concentration needed to bring the measured effect to its halfway point. As to “1,1,1-trifluoro-2-methylpropan-2-yl((2R,6S,7R,9R,13aS,14aR,16aS,Z)-14a-((cyclopropylsulfonyl)carbamoyl)-2-((3,7-dimethoxy-2-(trifluoromethyl)quinoxalin-6-yl)oxy)-7-ethyl-9-methyl-5,16-dioxo-1,2,3,5,6,7,8,9,10,11,13a,14,14a,15,16,16a-hexadecahydrocyclopropa[e]pyrrolo[1,2-a][1,4]diazacyclopentadecin-6-yl)carbamate [Compound 4355]”, the EC50 in experiment [1] (setting [3]) and in experiment [2] (setting [4]) was 5.01 to 35 nM throughout.
For the compound “3,3-difluoro-2-methylbutan-2-yl((2R,6S,7R,9R,13aS,14aR,16aS,Z)-7-ethyl-2-((2-(3-fluoro-4-isopropoxyphenyl)-7-methoxyquinolin-4-yl)oxy)-9-methyl-14a-(((1-methylcyclopropyl)sulfonyl)carbamoyl)-5,16-dioxo-1,2,3,5,6,7,8,9,10,11,13a,14,14a,15,16,16a-hexadecahydrocyclopropa[e]pyrrolo[1,2-a][1,4]diazacyclopentadecin-6-yl)carbamate [Compound 5550]”, the values for the EC50 in experiment [1] (setting [3]) and in experiment [2] (setting [4]) were 0.51 to 1 nM and 1.01 to 5 nM, respectively.
On to `CC1CC/C=C\[C@@H]2C[C@@]2(C(=O)NS(=O)(=O)C2(CF)CC2)NC(=O)[C@@H]2C[C@@H](Oc3nccc4c5c(ccc34)OCCO5)CN2C(=O)[C@@H](NC(=O)OC(C)(C)C)[C@H](C)C1` (stereo in doubt) [Compound 5321, tert-butyl ((2R,6S,7R,9R,13aS,14aR,16aS,Z)-2-((2,3-dihydro-[1,4]dioxino[2,3-f]isoquinolin-7-yl)oxy)-14a-(((1-(fluoromethyl)cyclopropyl)sulfonyl)carbamoyl)-7,9-dimethyl-5,16-dioxo-1,2,3,5,6,7,8,9,10,11,13a,14,14a,15,16,16a-hexadecahydrocyclopropa[e]pyrrolo[1,2-a][1,4]diazacyclopentadecin-6-yl)carbamate], for which the EC50 in experiment [1] (Hepatitis C virus, Huh-7, 72 h, HCV genotype 1a replicon luciferase, read-out: LE_1a (EC50, range)) was below 5.46 nM; in experiment [2] (Hepatitis C virus, Huh-7, 72 h, HCV genotype 1b replicon luciferase, read-out: LE_1b (EC50, range)), below 5.46 nM.
With `COc1ccc2c(O[C@@H]3C[C@H]4C(=O)N[C@]5(C(=O)NS(=O)(=O)C6CC6)C[C@H]5/C=C\CC[C@@H](C)C[C@@H](C)[C@H](NC(=O)OC(C)(C)C(F)(F)F)C(=O)N4C3)nccc2c1` [Compound 7, 1,1,1-trifluoro-2-methylpropan-2-yl((2R,6S,7R,9R,13aS,14aR,16aS,Z)-14a-((cyclopropylsulfonyl)carbamoyl)-2-((6-methoxyisoquinolin-1-yl)oxy)-7,9-dimethyl-5,16-dioxo-1,2,3,5,6,7,8,9,10,11,13a,14,14a,15,16,16a-hexadecahydrocyclopropa[e]pyrrolo[1,2-a][1,4]diazacyclopentadecin-6-yl)carbamate], the EC50 in experiment [1] (setting [5]) and in experiment [2] (setting [6]) was below 5.46 nM each time.
For `COc1ccc2c(O[C@@H]3C[C@H]4C(=O)N[C@]5(C(=O)NS(=O)(=O)C6(F)CC6)C[C@H]5/C=C\CC[C@@H](C)C[C@@H](C)[C@H](NC(=O)OC(C)(C)C)C(=O)N4C3)nccc2c1` [Compound 9, tert-butyl ((2R,6S,7R,9R,13aS,14aR,16aS,Z)-14a-(((1-fluorocyclopropyl)sulfonyl)carbamoyl)-2-((6-methoxyisoquinolin-1-yl)oxy)-7,9-dimethyl-5,16-dioxo-1,2,3,5,6,7,8,9,10,11,13a,14,14a,15,16,16a-hexadecahydrocyclopropa[e]pyrrolo[1,2-a][1,4]diazacyclopentadecin-6-yl)carbamate], the EC50 in experiment [1] (setting [5]) and in experiment [2] (setting [6]) was below 5.46 nM in each case.
As to `COc1ccc2c(O[C@@H]3C[C@H]4C(=O)N[C@]5(C(=O)NS(=O)(=O)C6(F)CC6)C[C@H]5/C=C\CC[C@H](C)C[C@@H](C)[C@H](NC(=O)OC(C)(C)C)C(=O)N4C3)nccc2c1` [Compound 10, tert-butyl ((2R,6S,7R,9S,13aS,14aR,16aS,Z)-14a-(((1-fluorocyclopropyl)sulfonyl)carbamoyl)-2-((6-methoxyisoquinolin-1-yl)oxy)-7,9-dimethyl-5,16-dioxo-1,2,3,5,6,7,8,9,10,11,13a,14,14a,15,16,16a-hexadecahydrocyclopropa[e]pyrrolo[1,2-a][1,4]diazacyclopentadecin-6-yl)carbamate], the EC50 is below 5.46 nM in experiment [1] (setting [5]); 3.08 nM in experiment [1] (Hepatitis C virus, Huh-7, 72 h, HCV genotype 1a replicon luciferase assay, read-out: LE_1a (EC50)); below 5.46 nM in experiment [2] (setting [6]); 0.8 nM in experiment [2] (Hepatitis C virus, Huh-7, 72 h, HCV genotype 1b replicon luciferase assay, read-out: LE_1b (EC50)).
As for `COc1ccc2c(O[C@@H]3C[C@H]4C(=O)N[C@]5(C(=O)NS(=O)(=O)C6(F)CC6)C[C@H]5/C=C\CC[C@@H](C)C[C@@H](C)[C@H](NC(=O)OC(C)(C)C(F)(F)F)C(=O)N4C3)nccc2c1` [Compound 11], the EC50 is below 5.46 nM in experiment [1] (Hepatitis C virus, GETYPE1A, Huh-7, 72 h, HCV genotype 1a replicon luciferase assay, range class, read-out: LE_1a (EC50, range)) and below 5.46 nM in experiment [2] (Hepatitis C virus, GETYPE1B, Huh-7, 72 h, HCV genotype 1b replicon luciferase assay, range class, read-out: LE_1b (EC50, range)).
Take `COCCn1nc(O[C@@H]2C[C@H]3C(=O)N[C@]4(C(=O)NS(=O)(=O)C5CC5)C[C@H]4/C=C\CC[C@H](C)C[C@@H](C)[C@H](NC(=O)OC(C)(C)C(C)(F)F)C(=O)N3C2)c2ccccc2c1=O` [Compound 1023, 3,3-difluoro-2-methylbutan-2-yl((2R,6S,7R,9S,13aS,14aR,16aS,Z)-14a-((cyclopropylsulfonyl)carbamoyl)-2-((3-(2-methoxyethyl)-4-oxo-3,4-dihydrophthalazin-1-yl)oxy)-7,9-dimethyl-5,16-dioxo-1,2,3,5,6,7,8,9,10,11,13a,14,14a,15,16,16a-hexadecahydrocyclopropa[e]pyrrolo[1,2-a][1,4]diazacyclopentadecin-6-yl)carbamate]: in experiment [2] (setting [6]), the EC50 was above 87.4 nM.
`COc1ccc2c(O[C@@H]3C[C@H]4C(=O)N[C@]5(C(=O)NS(=O)(=O)C6(CF)CC6)C[C@H]5/C=C\CC[C@H](C)C[C@@H](C)[C@H](NC(=O)OC(C)(C)C(C)(F)F)C(=O)N4C3)nccc2c1` [Compound 1142, 3,3-difluoro-2-methylbutan-2-yl((2R,6S,7R,9S,13aS,14aR,16aS,Z)-14a-(((1-(fluoromethyl)cyclopropyl)sulfonyl)carbamoyl)-2-((6-methoxyisoquinolin-1-yl)oxy)-7,9-dimethyl-5,16-dioxo-1,2,3,5,6,7,8,9,10,11,13a,14,14a,15,16,16a-hexadecahydrocyclopropa[e]pyrrolo[1,2-a][1,4]diazacyclopentadecin-6-yl)carbamate]: the EC50 in experiment [2] (setting [6]) was below 5.46 nM.

Source of the values: patent publication US9499550B2 (BRISTOL-MYERS SQUIBB COMPANY, priority 2012, dated 2016).
